The text below walks through data of BindingDB's records for doi:10.1021/acs.jmedchem.9b00506 (Rapt Therapeutics, 2019).

One test can be described thus: Antagonist activity at CCR4 in anti-CD3/CD28 stimulated mouse Treg cells assessed as inhibition of CCL22-mediated chemotaxis in presence of 100% human serum pre-incubated for 30 mins followed by CCL22 addition and measured after 60 mins by chemoTX probe based CellTiter-Glo assay. (In general: ATP-based viability assays read luminescence as a measure of living cells.)
In the case of `C[C@@H]1CC(c2cnc3c(C#N)nn([C@H](C)c4ccc(Cl)cc4Cl)c3n2)=CC[C@@H]1N1CCC[C@H]1CO`, the IC50 (commonly the concentration that gives 50% inhibition) is 165 nM.
`C[C@@H]1CC(c2cnc3c(C#N)nn([C@H](C)c4ccc(Cl)cc4Cl)c3n2)=CC[C@@H]1N1CCC[C@H]1C`: the IC50 stood at 325 nM.

The nature of a further test: Antagonist activity at CCR4 in human CCRF-CEM cells assessed as inhibition of CCL22-mediated chemotaxis in presence of 100% human serum pre-incubated for 30 mins followed by CCL22 addition and measured after 60 mins by chemoTX probe based CellTiter-Glo assay.
On to `C[C@@H]1CC(c2cnc3c(C#N)nn([C@H](C)c4ccc(Cl)cc4Cl)c3n2)=CC[C@@H]1N1CCC[C@H]1C(N)=O`, for which the IC50 amounted to 1380 nM.
In the case of `Cc1nn([C@H](C)c2ccc(Cl)cc2Cl)c2nc(N3CC[C@H](N4CCC[C@H]4CCC(N)=O)[C@H](C)C3)cnc12`, the IC50 was 355 nM.
For the compound `C[C@@H]1CC(c2cnc3c(C#N)nn([C@H](C)c4ccc(Cl)cc4Cl)c3n2)=CC[C@@H]1N1CCC[C@H]1CN`, the IC50 was determined as 638 nM.
Same read-out and setting: in the case of `C[C@@H]1CC(c2cnc3c(C#N)nn([C@H](C)c4ccc(Cl)cc4Cl)c3n2)=CC[C@@H]1N1CCC[C@H]1CO` it was 70 nM.
Turning to `C[C@@H]1CC(c2cnc3c(C#N)nn([C@H](C)c4ccc(Cl)cc4Cl)c3n2)=CC[C@@H]1N1CCC[C@H]1C`, the IC50 stood at 44 nM.
Turning to `Cc1nn([C@H](C)c2ccc(Cl)cc2Cl)c2nc(C3=CC[C@H](N4CCC[C@H]4CO)[C@H](C)C3)cnc12`, the IC50 stood at 179 nM.
The same measure, in the same setting: in the case of `Cc1nn([C@H](C)c2ccc(Cl)cc2Cl)c2nc(N3CC[C@H](N4CCCCC4)[C@H](C)C3)cnc12` it was 361 nM.
`Cc1nn([C@H](C)c2ccc(Cl)cc2Cl)c2nc(N3CC[C@H](N4CCC[C@H]4CCS(N)(=O)=O)[C@H](C)C3)cnc12`: the IC50 turned out to be 259 nM.
For the compound `Cc1nn([C@H](C)c2ccc(Cl)cc2Cl)c2nc(N3CC[C@H](N4CCC[C@H]4CCC#N)[C@H](C)C3)cnc12`, the IC50 worked out at 865 nM.
`C[C@@H]1CC(c2cnc3c(C#N)nn([C@H](C)c4ccc(Cl)cc4Cl)c3n2)=CC[C@@H]1N1CCC[C@H]1C(C)(C)O`: the IC50 was found to be 1200 nM.
